Here are results for three compounds from patent publication US10376486B2, “Compositions and methods for reactivating latent viral infections” (priority 2014, dated 2019).

Structures are written as SMILES. Entries after “also recorded” stand apart in the source; their conditions may differ.

The test system of test [1] is PEP005-induced HIV reactivation in J-Lat A1 cells. The test can be described thus: Suppression of PEP005-induced HIV reactivation in J-Lat A1 cells (GFP expression by RT-qPCR). The class given is cell-based. The settings on record: 6 nM PEP005, PKC inhibitor 1, 2 or 5 μM, Bay 11-7082 2.5 μM. As to the method: FIG. 4: PEP005-induced HIV reactivation is mediated through PKCδ/θ-IκBα/ε-NF-κB signaling. (A) PEP005-induced HIV reactivation is suppressed by inhibition of the PKCδ/θ. J-Lat A1 cells were treated with 6 nM of PEP005 in the presence of 1, 2 or 5 μM of PKC inhibitor (PKCθ/δ inhibitor; Milipore/Calbiochem (539649)) and evaluated for GFP expression by RT-qPCR. (B) NF-κB inhibition partially suppresses PEP005-induced HIV reactivation in J-Lat A1 cells. J-Lat A1 cells were treated with 6 nM of PEP005 in the presence of 2.5 μM Bay 11-7082, an NF-κB inhibitor, and were evaluated for GFP expression by RT-qPCR. (C) J-Lat A1 cells were treated with PEP005 or alternatively with PKC inhibitor alone or in the presence of PEP005 and the relative binding of NF-κB to the HIV LTR was determined using ChIP-qPCR.
Real-time PCR analysis of GFP or HIV gene expression: Total RNA was isolated from J-Lat A1 cells or U1 cells using the RNeasy Kit (Qiagen) followed by digestion with DNase I (Invitrogen). First strand cDNA was synthesized using Superscript II (Invitrogen). Real-time PCR (TaqMan) was performed on a ViiA 7 detector using the following primer/probe set: for J-Lat A1 cells, primer 1: 5′-[…]-3′ (SEQ ID NO:5), primer 2: 5′-[…]-3 ‘ (SEQ ID NO:6), probe 5’-FAM CTACAAGACCC G[…]-3′ (SEQ ID NO:7), for U1 cells HIV 5′ LTR primers/probe were used (see above). […]

In test [2] the test system is latent HIV in J-Lat A1 cells. The test can be described thus: HIV latency reactivation in J-Lat A1 cells (GFP expression by flow cytometry). It is filed as cell-based. The following applies: GFP, 24 h, PEP005 2-40 nM, GSK343 2 μM. How it is done:
FIG. 1: PEP005 induces reactivation of HIV latency in vitro. J-Lat A1 cells were exposed to different concentrations of PEP005 and virus reactivation was measured by GFP expression using flow cytometry. Cell viability was determined by Live/Dead dye staining. (A) Chemical Structure of PEP005. […] (D) PEP005 potently reactivates latent HIV in cell lines compared with other LRAs. J-Lat A1 cells were treated with 10 nM PEP005, 500 nM SAHA, 2 μM JQ1, 2 μM GSK343, 10 ng/ml TNF, 2 μM Prostratin, or 5 ng/ml PMA for 24 hours and the percentage of GFP expression was evaluated using flow cytometry. *, p<0.05; **, p<0.01.
FIG. 2: PEP005 synergizes with other latency reversing agents in reactivating latent HIV. (A) J-Lat A1 cells were treated with 5 ng/ml PMA, 6 nM PEP005, 500 nM SAHA, 2 μM JQ1, 2 μM GSK343, or 10 μM Prostratin alone or in combination with 6 nM PEP005 for 24 hours and the percentage of GFP expressing cells was determined using flow cytometry. **, p<0.01; *, p<0.05 compared with control treatment; **, p<0.01; *, p<0.05 compared with PEP005 treatment alone. (B) The U1 cells were treated with 5 ng/ml PMA, 6 nM PEP005, 500 nM SAHA, 2 μM JQ1, or 2 μM GSK343, alone or in combination with 6 nM PEP005 for 24 hours and the HIV transcription was evaluated using RT-qPCR. Numbers indicate fold-increase over the control. **, p<0.01; *, p<0.05 compared with control treatment; **, p<0.01; *, p<0.05 compared with PEP005 treatment alone. […] The Bliss independence model was utilized for calculation of synergy for LRA combinations. Dotted horizontal line signifies pure additive effect (Δfaxy=0). Synergy is defined as Δfaxy>0 while Δfaxy<0 indicates antagonism. Statistical significance was determined using a one tailed ratio t-test comparing predicted and observed drug combination effects. *p<0.05; **p<0.01.
J-Lat A1 cells (harboring a single copy of latent HIV LTR and one copy of green fluorescent protein gene under the HIV LTR control) or U1 cells (harboring two latent HIV genomes with defective Tat gene) were cultured in RPMI1640 medium with 10% fetal bovine serum (FBS) and 1% Pen/strep in a 37° C. incubator containing 5% CO2 [24,31]. Both of the cell lines were obtained from NIH AIDS Reagent Program. For reactivation of HIV LTR, cells were treated with PMA (Sigma), JQ1 (Biovision), Prostatin (Sigma), SAHA (Santa Cruz), TNF-α (BD), GSK343 (Sigma), or PEP005 (Tocris Bioscience) for 24 h. HIV reactivation was quantified by GFP expression using flow cytometry and the data were analyzed using FlowJo Software for J-Lat A1 cells, or by quantitative RT-PCR (RT-qPCR) for J-Lat A1 and U1 cells. Cell viability was evaluated using Live/Dead dye (Life Technologies) by flow cytometry. So far, there is not a single in vitro cell culture model available that captures all the features of HIV latency. However, PKC agonists seem to reactivate latent HIV in all the cell culture models of viral latency. Similar to other J-Lat cell lines, the J-Lat A1 clone has been widely used by researchers for HIV latency studies. The T-cell-derived J-Lat A1 cells harbor one copy of a construct containing a Tat and a green fluorescent protein (GFP) gene framed by the 5′ and 3′ HIV LTR [32]. The J-Lat A1 cells also contain the TAR loop located within the R region of HIV LTR (nt +1 to +60), which provides an opportunity for Tat-TAR interactions for the modulation of transcription and transcriptional elongation. […]

Test [3] relates to PKCδ/θ-IκBα/ε-NF-κB signaling. The settings on record: IngB treatment; cited from earlier work.

As for `Cc1ccc(S(=O)(=O)/C=C/C#N)cc1` [Bay-11-7082], the “reduction of PEP005-induced latent HIV reactivation” value in test [1] is “approximately 50%”.
On to `CCCc1cc(C)[nH]c(=O)c1CNC(=O)c1cc(-c2ccnc(N3CCN(C)CC3)c2)cc2c1cnn2C(C)C` [GSK343], for which the “induction of HIV expression, agent alone” value in test [2] is “failed to induce HIV expression; also recorded: could not effectively induce HIV expression; also recorded: no capacity to reactivate latent HIV by itself”.
With `CCCCCC(=O)O[C@H]1C(C)=C[C@]23C(=O)[C@@H](C=C(CO)[C@@H](O)[C@]12O)[C@H]1[C@@H](C[C@H]3C)C1(C)C` [IngB, ingenol-3-hexanoate], in test [3], the “expression of NF-κB/p65 protein, earlier report [24]” value is listed as “increased expression of NF-κB/p65 protein”.
